Assay results taken from patent US5354748A, “Oral antibacterial compositions and method for the improvement of gastrointestinal absorption of penem or carbapenem antibiotics” (Suntory Limited, priority 1991, dated 1994).

Settings: dog, in vivo
Experimental: Capsules were prepared by filling capsules with a 12.6:1 or 126:1 (by molar ratio) mixture of sodium (1'R,2"R,5R,6S)-6-(1'-hydroxyethyl)-2-(2"-tetrahydrofuranyl)penem-3-carboxylate 2.5 hydrate and cilastatin, namely, with a powder mixture consisting of 75 mg of the penem carboxylate and 7.5 or 0.75 mg of cilastatin per capsule. One of the capsules was orally administered to matured dogs. The blood was collected during the period of from 0.25 to 4 hours after the administration, and the concentrations of the free acid of the penem in plasma samples were measured by HPLC. Further, urine samples were collected until 24 hours after the administration and the concentrations of the free acid of the penem in the urine samples were measured by HPLC.
The area under the concentration:time curve (AUCpO) Of the compound contained in the plasma after its oral administration was compared to the area under the concentration:time curve (AUCiv) when the penemcarboxylate alone was intravenously administered at 10 mg/Kg and, assuming AUCiv be 100%, the percentage of AUCpo was calculated in accordance with the following formula and recorded as Oral Absorption Percentage A. Similarly, assuming that the percentage of excretion of the above penemcarboxylate into urine (Uiv) upon its intravenous administration at 10 mg/Kg be 100%, Oral Absorption Percentage B was calculated in accordance with the following formula from the percentage of excretion of the penemcarboxylate into urine upon its oral administration (Upo).
Oral absorption A (%)=AUCpo/AUCiv×10/75×100
Oral absorption B (%)=Upo/Uiv×100

Increase of oral absorption percentage (from AUC) relative to penemcarboxylate alone: 2.3 times | Oral absorption A: 33.9% | Increase of oral absorption percentage (from excretion into urine) relative to penemcarboxylate alone (1440 min): 2.3 times | Oral absorption B (24 h): 38.6% | Highest concentration in plasma (po): 11.86 µg/mL | AUC (po, 4 h): 18620 ng·h/mL | Excretion into urine (po, 24 h): 16.58%
SMILES: C[C@@H](O)[C@H]1C(=O)N2C(C(=O)O)=C([C@H]3CCCO3)S[C@H]12 [sodium (1'R,2"R,5R,6S)-6-(1'-hydroxyethyl)-2-(2"-tetrahydrofuranyl)penem-3-carboxylate 2.5 hydrate]
